Measured values: ChEMBL document CHEMBL1145652, “Plant anticancer agents. XXVI. Constituents of Peddiea fischeri” (1983)
In brackets after ≈: the same amount, converted by molar mass. Activity calls are given as the source filed them. The rule behind the calls is not given here.

Legend:
P388 [1] = assay: Cytotoxicity against mouse P388 cells; assay type: functional; conditions: read-out: ED50 (the source's name)
P388 [2] = assay: In vivo antitumor activity against mouse P388 cells at 2.2 to 17.5 mg/kg; assay type: functional, organism-based
P388 [3] = assay: In vivo antitumor activity against mouse P388 cells at 1.4 to 11.4 mg/kg; assay type: functional, organism-based

Row | SMILES | EC50 (P388 [1]) | Activity (P388 [2]) | Activity (P388 [3])
1 | COC1=CC(=O)C=C(OC)C1=O [2,6-DIMETHOXYQUINONE] | 0.0015 µg/mL (≈ 0.00892 µM) | – | –
2 | COc1cc2cc(Oc3ccc4ccc(=O)oc4c3)c(=O)oc2cc1O [DAPHNORETIN] | 2.2 µg/mL (≈ 6.24 µM) | inactive | inactive
3 | O=c1ccc2ccc(O)cc2o1 [UMBELLIFERONE] | 0.4 µg/mL (≈ 2.47 µM) | inactive | inactive
